Reference: patent US11957767B2, “Compound targeting prostate specific membrane antigen, and preparation method and application thereof” (YANTAI LANNACHENG BIOTECHNOLOGY CO., LTD., priority 2021, dated 2024)

How the values were obtained:
PSMA positive lesions = details: human, in vivo; cited from earlier work
[1] = test system: subcutaneous transplanted tumor, prostate cancer (22RV1); assay: Uptake of 177Lu labeled complex in subcutaneous transplanted tumor model mice with prostate cancer (tumor uptake and tissue distribution); type: in vivo; details: 24 h after intravenous tail injection of 5 MBq; 22RV1 tumor model mice; FIG. 1
Procedure: The compound in Example 31 or another prior radioactive probe targeting PSMA was injected into subcutaneous transplanted tumor model mice with prostate cancer, and uptake results in tumors and distribution results in tissues were compared. A specific plan is as follows.
The subcutaneous transplanted tumor model mice with prostate cancer (22RV1) were randomly divided into 3 groups including an experimental group, a control group A and a control group B with 3 mice in each group.
[…] complex with purity of greater than 95% was prepared according to the method in Example 31. The complex is obtained by labeling compound 10 in Example 1 with ^177Lu, which was used as medicine B for the experimental group in the experiment. […]
5 MBq of medicine B, the medicine A and the medicine C were intravenously injected into tails of the mice in the experimental group, the control group A and the control group B, respectively. […] The obtained tissues were weighed, and measured by a y counter to obtain the radioactive counting of samples in the experimental group, the control group A and the control group B. Measured data were subtracted from the background, the decay time was corrected, and then average values were obtained. The data was expressed as the percentage of injected dose per gram tissue (% ID/g) of the dose uptake in tissues per gram in the injected dose.

Structure (SMILES): O=C([O-])CN1CCN(CC(=O)[O-])CCN(CC(=O)NCC2CCC(C(=O)N[C@@H](Cc3ccc4ccccc4c3)C(=O)NCCCC[C@H](NC(=O)N[C@@H](CCC(=O)O)C(=O)O)C(=O)O)CC2)CCN(CC(=O)[O-])CC1.[177Lu+3] (some centres unmarked) [^177Lu-PSMA 617]
- patients with no response to therapy (PSMA positive lesions): About 30%
- uptake in tumors [1]: 7.60±1.22 % ID/g
